# Source: PMC5587768, “Ligand activation induces different conformational changes in CXCR3 receptor isoforms as evidenced by plasmon waveguide resonance (PWR)” (Scientific Reports, 2017)
# “And” between values parts separate entries of the source, which are not always exact repeats. Equal values may be shown once.
# Columns and labels:
# HEK-CTRL cell fragments = test: Plasmon waveguide resonance (PWR) on HEK-CTRL cell fragments (empty GFP vector control); type: binding, human
# Excerpt: (§1) In contrast, membrane fragments of cells expressing either CXCR3-A or CXCR3-B responded to ligand stimulation in a saturable manner (Fig. 2; Fig. S3). […] PWR is sensitive to both, mass and structural changes. Inasmuch as the ligand is far too small to contribute to a mass change by itself, the PWR spectral changes observed correspond to ligand-induced receptor conformational changes (upon formation of the R/L complex). From the saturable and hyperbolic binding response, a dissociation constant was determined. The cell fragments are quite stable after sensor immobilization as no alterations in the spectra were observed after repetitive and extensive washing with buffer. Furthermore, lipids and receptors are oriented with their long axis along the p-polarization axis as shown by the anisotropic response. Thus, spectral modifications observed in p-polarization reflect changes along the receptor main axis, while modifications in s-polarization reflect changes along the receptor minor axis (Fig. S2). In HEK-CXCR3-A cells, agonist binding led to an increase in the resonance minimum position for both p- and s-polarization. A positive shift in the resonance angle is correlated with an increase in the refractive index due to a mass increase in the system. Since the ligand, by itself, is too small to be able to produce such spectral changes, the response can only be attributed to conformational change in the receptor which is reflected by an increase in mass density. […] The negative shift, while of considerably smaller magnitude, results from a slight decrease in the mass density in the system and can be attributed to a conformational change leading to a looser and less ordered arrangement of the TM helices accompanied by a slight decrease in length. Thus, agonist-mediated CXCR3 activation leads to opposite conformational changes depending on the CXCR3 isoform.
# (§2) PWR measurements were performed in a homemade instrument equiped with a He-Ne laser, with a fixed wavelenght in the visible region (λ = 632 nm; Melles Griot), a rotating table allowing the incident angle to be changed by steps ≤1 mdeg (thus resolution being on that order; Newport) and a photodiode detector (Hamamatsu) to measure the reflected light as a function of the incident angle. The polarization angle of the incident beam is placed at 45° allowing both p- and s-polarized spectra to be obtained within the same angular scan. The sensor consisted in a BK-7 prism coated with silver and silica (to support waveguide modes)[36]. All measurements were performed at 22 °C in a temperature controlled room. More details about this technology can be found. The protocol for adhesion of cell fragments on silica (glass slides or PWR sensor) was adapted from reported work from Vogel and collaborators. […]
# CXCR3-A [1] = target: T1, CXCR3-A (Homo sapiens, UniProt P49682); test: Plasmon waveguide resonance (PWR) on HEK-CXCR3-A cell membrane fragments; type: binding; details: for Kd: HEK-CXCR3-A cell fragments, incremental ligand addition, hyperbolic fit; for Difference in KD between CXCR3-A and CXCR3-B (higher affinity for CXCR3-A): KD CXCR3-B versus KD CXCR3-A
# T1 construct: The coding regions of human CXCR3-A or CXCR3-B cDNA; expressed in transfected cells; host or cells: HEK-293, stably transfected (HEK-CXCR3-A)
# T1 sequence (P49682 1-368): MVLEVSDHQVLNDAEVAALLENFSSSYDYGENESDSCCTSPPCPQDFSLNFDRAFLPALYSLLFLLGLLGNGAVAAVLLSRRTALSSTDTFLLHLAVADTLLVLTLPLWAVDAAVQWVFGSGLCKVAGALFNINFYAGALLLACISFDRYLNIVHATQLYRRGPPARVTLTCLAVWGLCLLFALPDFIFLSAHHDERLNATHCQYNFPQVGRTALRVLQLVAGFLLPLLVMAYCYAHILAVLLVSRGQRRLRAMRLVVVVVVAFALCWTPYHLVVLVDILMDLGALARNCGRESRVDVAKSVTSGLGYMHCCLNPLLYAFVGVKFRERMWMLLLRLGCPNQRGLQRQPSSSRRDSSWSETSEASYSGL
# Excerpt: (§3) Ligand-mediated activation of CXCR3 was studied by PWR and flow cytometry measuring calcium flux. The former technique allows to determine the affinity, ligand-binding kinetics and anisotropy of the events occurring at the sensor surface. This technique gives the possibility of following resonance with two types of polarizations, p- and s-polarizations. PWR can be applied both to artificial lipid model systems with reconstituted receptors or to cell fragments[27]–[34]. In the present study, cell membrane fragments from cells expressing the CXCR3-A and CXCR3-B receptors were immobilized on the PWR sensor which is composed of a prism coated with a silver layer and overcoated with a silica layer. The prism is pre-treated with polylysine to promote cell adhesion by electrostatic interactions between the negative charges provided by the cell surface glycosaminoglycans (GAGs) and the positive charges of polylysine. The quality of HEK-CTRL, HEK-CXCR3-A and HEK-CXCR3-B membrane fragments was verified by confocal microscopy by visualizing the GFP-tagged receptors using glass slides of the same material (silica) than the outer layer of the sensor surface (Fig. 1A). The presence of fluorescent membrane fragments on the glass slide of few μm were evidenced in agreement with reported literature.
# as §1
# as §2, with “found.” for “found. The protocol for adhesion of cell fragments on silica (glass slides or PWR sensor) was adapted from reported work from Vogel and collaborators.”
# CXCR3-B [2] = target: T2, CXCR3-B (Homo sapiens, UniProt P49682); test: Plasmon waveguide resonance (PWR) on HEK-CXCR3-B cell membrane fragments; type: binding; details: for Kd: HEK-CXCR3-B cell fragments, incremental ligand addition, hyperbolic fit
# T2 construct: The coding regions of human CXCR3-A or CXCR3-B cDNA; expressed in transfected cells; host or cells: HEK-293, stably transfected (HEK-CXCR3-B)
# T2 sequence (P49682 1-415 isoform P49682-2): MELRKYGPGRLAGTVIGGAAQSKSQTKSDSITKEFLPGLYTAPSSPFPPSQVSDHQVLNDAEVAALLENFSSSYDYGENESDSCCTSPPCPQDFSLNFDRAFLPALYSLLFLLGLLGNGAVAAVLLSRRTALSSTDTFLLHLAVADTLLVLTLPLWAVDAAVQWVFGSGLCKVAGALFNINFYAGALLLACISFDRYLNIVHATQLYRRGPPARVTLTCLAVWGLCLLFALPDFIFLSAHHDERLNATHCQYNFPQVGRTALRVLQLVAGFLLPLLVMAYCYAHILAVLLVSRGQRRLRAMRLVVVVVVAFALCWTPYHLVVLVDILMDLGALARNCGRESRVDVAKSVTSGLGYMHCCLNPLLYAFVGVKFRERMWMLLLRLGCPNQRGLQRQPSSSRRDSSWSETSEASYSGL
# Excerpt: as §3, §1
# as §2, with “found.” for “found. The protocol for adhesion of cell fragments on silica (glass slides or PWR sensor) was adapted from reported work from Vogel and collaborators.”
# CXCR3-A [3] = target: T1, CXCR3-A; test: Calcium flux by flow cytometry in HEK-CXCR3-A cells; type: cell-based
# Procedure: (§4) Human Embryonic Kidney (HEK-293) cell lines, were regularly tested for contamination and were all mycoplasma-free. Cells were cultured in Dulbecco’s Modified Eagle’s medium (DMEM, Thermo Fisher Scientific) supplemented with 10% Fetal Bovine Serum (FBS), 5% antibiotics (Penicillin and […]) and 5% L-glutamine. All cells were grown at 37 °C, 5% CO2 and split at 70–90% of confluence with 0.25% Trypsin. Cell transfection was performed using Effecten kit (Qiagen) according to the manufacter’s instruction. HEK-CTRL (HEK-293 stably transfected with empty pEGFPN2 vectors) HEK-CXCR3-A cells and HEK-CXCR3-B (HEK-293 stably transfected with pEGFPN2 + CXCR3-A or pEGFPN2 + CXCR3-B vectors, respectivly) were grown in the presence of Zeocin (200 µg/ml). For inhibition experiments, cells were pretreated 1 h with the CXCR3 antagonist SCH546738 at dose-dependant concentration. SCH546738 is a small molecular lipophilic molecule, with the chemical formula: C23H31Cl2N7O. […] For this reason a concentration range from 0.5 to 2.2 nM has been used.
# (§5) Intracellular calcium concentration was measured using Calcium Assay Kit (BD 640176) according to the manufacter’s procedure on an AccuriC6 flow cytometer equipped with BD AccuriC6 software (BD, San Jose, CA). Cells were placed in suspension and 1X Dye loading solution was added for 20 min at 37 °C. Calcium concentration was then recorded for 5 min on the AccuriC6 flow cytometer. CXCR3 agonist stimulation was performed after 2 min of recording and intracellular calcium increase was visualized. Calcium concentration after stimulation was normalized by calcium concentration before stimulation. Cells without 1X dye loading solution were used as a negative control in order to quantify the background level.
# CXCR3-B [4] = target: T2, CXCR3-B; test: Calcium flux by flow cytometry in HEK-CXCR3-B cells; type: cell-based
# Procedure: as §4, §5
# CXCR3 = details: cited from earlier work
smiles,measurement,setting,value
NC(N)=NCCC[C@H](NC(=O)[C@@H]1Cc2ccccc2CN1C(=O)CCC(=O)c1ccccc1)C(=O)NCC1CCCCC1 [PS372424],"Shift in resonance minimum position, P-pol","HEK-CTRL cell fragments; HEK-CTRL, p-polarization",0 +/- 1 mdeg
same,"Shift in resonance minimum position, S-pol","HEK-CTRL cell fragments; HEK-CTRL, s-polarization",0 +/- 1 mdeg
same,KD,"HEK-CTRL cell fragments; PWR, HEK-CTRL cell fragments",No binding
same,"Shift in resonance minimum position, P-pol","CXCR3-A [1]; HEK-CXCR3-A, p-polarization, incremental addition to saturation",16 +/- 12 mdeg
same,"Shift in resonance minimum position, S-pol","CXCR3-A [1]; HEK-CXCR3-A, s-polarization, incremental addition to saturation",4 +/- 1 mdeg
same,Kd,CXCR3-A [1]; PWR,40 nM
same,Difference in KD between CXCR3-A and CXCR3-B (higher affinity for CXCR3-A),CXCR3-A [1]; PWR,10 fold
same,"Shift in resonance minimum position, P-pol","CXCR3-B [2]; HEK-CXCR3-B, p-polarization, incremental addition to saturation",-5 +/- 1 mdeg
same,"Shift in resonance minimum position, S-pol","CXCR3-B [2]; HEK-CXCR3-B, s-polarization, incremental addition to saturation",-4 +/- 1 mdeg
same,Kd,CXCR3-B [2]; PWR,450 nM
same,Intracellular calcium flux after agonist stimulation,CXCR3-A [3]; HEK-CXCR3-A cells,increase intracellular calcium flux
same,Intracellular calcium flux after agonist stimulation,CXCR3-B [4]; HEK-CXCR3-B cells,increase intracellular calcium flux
same,IC50,"CXCR3; isoforms not distinguished, read-out: IC50 reported for binding to CXCR3",42 nM
CC[C@H]1CN(c2nc(N)c(C(N)=O)nc2Cl)CCN1C1CCN(Cc2ccc(Cl)cc2)CC1 [SCH546738],PWR response of control cell fragments (non-specific binding),HEK-CTRL cell fragments; HEK-CTRL cell fragments,did not respond
same,Kd,CXCR3-A [1]; PWR,0.5 nM
same,Agonist binding after SCH546738 at 1 nM,"CXCR3-A [1]; PWR, HEK-CXCR3-A, SCH546738 1 nM",totally abrogated
same,Agonist binding after SCH546738 at saturating concentration,"CXCR3-A [1]; PWR, HEK-CXCR3-A, SCH546738 2.2 nM, 1 h",completely abolished
same,Difference in KD between CXCR3-A and CXCR3-B (higher affinity for CXCR3-A),CXCR3-A [1]; PWR,3 fold
same,Kd,CXCR3-B [2]; PWR,1.5 nM
same,Agonist binding after SCH546738 at 1 nM,"CXCR3-B [2]; PWR, HEK-CXCR3-B, SCH546738 1 nM",binding was still observed
same,Agonist binding after SCH546738 at saturating concentration,"CXCR3-B [2]; PWR, HEK-CXCR3-B, SCH546738 2.2 nM, 1 h",completely abolished
same,Receptor activation by agonist (calcium flux) after SCH546738 pretreatment,CXCR3-A [3]; HEK-CXCR3-A cells pretreated with SCH546738,no longer activated
same,Inhibition of CXCR3-A activation (calcium flux),CXCR3-A [3]; at 1 nM,more than 70%
same,Receptor activation by agonist (calcium flux) after SCH546738 pretreatment,CXCR3-B [4]; HEK-CXCR3-B cells pretreated with SCH546738,no longer activated
same,Inhibition of CXCR3-B activation (calcium flux),CXCR3-B [4]; at 1 nM,25%
same,Kd,"CXCR3; other reports and methods, read-out: Affinity to CXCR3 reported",0.8 to 2.2 nM and 0.4 to 2.2 nM
